This passage reports pest or weed control and melting point results from patent US11154058B2, “Fungicidal compositions” (SYNGENTA PARTICIPATIONS AG, priority 2017, dated 2021).

Data set [1] has as its system Blumeria graminis f. Sp. Tritici (Erysiphe graminis f. Sp. Tritici). Nature of the data set: Blumeria graminis f. sp. tritici / wheat / leaf disc preventative (powdery mildew on wheat). Type of data set: in vivo. Particulars: foliar, compared to untreated control, read-out: disease control. How it is done: Blumeria graminis f. Sp. Tritici (Erysiphe graminis f. Sp. Tritici)/Wheat/Leaf Disc Preventative (Powdery Mildew on Wheat)
Wheat leaf segments cv. Kanzler were placed on agar in a multiwell plate (24-well format) and sprayed with the formulated test compound or mixture composition diluted in water. The leaf disks were inoculated by shaking powdery mildew infected plants above the test plates 1 day after application. The inoculated leaf disks were incubated at 20° C. and 60% rh under a light regime of 24 h darkness followed by 12 h light/12 h darkness in a climate chamber and the activity of a compound or mixture composition was assessed as percent disease control compared to untreated when an appropriate level of disease damage appears on untreated check leaf segments (6-8 days after application).

Data set [2] has as its system Puccinia recondita f. Sp. Tritici. Nature of the data set: Puccinia recondita f. sp. tritici / wheat / leaf disc preventative (brown rust). In kind it is in vivo. Particulars: foliar, compared to untreated control, read-out: disease control. How it is done: Puccinia recondita f. Sp. Tritici/Wheat/Leaf Disc Preventative (Brown Rust) Wheat leaf segments cv. Kanzler were placed on agar in multiwell plates (24-well format) and sprayed with the formulated test compound or mixture composition diluted in water. The leaf disks were inoculated with a spore suspension of the fungus 1 day after application. The inoculated leaf segments were incubated at 19° C. and 75% rh under a light regime of 12 h light/12 h darkness in a climate cabinet and the activity of a compound or mixture composition was assessed as percent disease control compared to untreated when an appropriate level of disease damage appears in untreated check leaf segments (7-9 days after application).

Data set [3] has the same test system. In words: Puccinia recondita f. sp. tritici / wheat / leaf disc curative (brown rust). In kind it is in vivo. Particulars: foliar, compared to untreated control, read-out: disease control. As to the method: Puccinia recondita f. Sp. Tritici/Wheat/Leaf Disc Curative (Brown Rust)
Wheat leaf segments cv. Kanzler are placed on agar in multiwell plates (24-well format). The leaf segments are inoculated with a spore suspension of the fungus. Plates were stored in darkness at 19° C. and 75% rh. The formulated test compound or mixture composition diluted in water was applied 1 day after inoculation. The leaf segments were incubated at 19° C. and 75% rh under a light regime of 12 h light/12 h darkness in a climate cabinet and the activity of a compound or mixture composition was assessed as percent disease control compared to untreated when an appropriate level of disease damage appears in untreated check leaf segments (6-8 days after application).

The test system of data set [4] is Phakopsora pachyrhizi. Nature of the data set: Phakopsora pachyrhizi / soybean / preventative (soybean rust). Type of data set: in vivo. Particulars: foliar, soybean leaf disc, compared to untreated control. As to the method: Phakopsora pachyrhizi/Soybean/Preventative (Soybean Rust) Soybean leaf disks are placed on water agar in multiwell plates (24-well format) and sprayed with the formulated test compound diluted in water. One day after application leaf discs are inoculated by spraying a spore suspension on the lower leaf surface. After an incubation period in a climate cabinet of 24-36 hours in darkness at 20° C. and 75% rh leaf disc are kept at 20° C. with 12 h light/day and 75% rh. The activity of a compound is assessed as percent disease control compared to untreated when an appropriate level of disease damage appears in untreated check leaf disks (12-14 days after application).

For `CCO/N=C(\C)CC(O)(c1cc(C)c(/N=C/N(C)CC)cc1OC)C(F)(F)F` (centres unmarked) [Q.001, N′-[4-[(3E)-3-ethoxyimino-1-hydroxy-1-(trifluoromethyl)butyl]-5-methoxy-2-methyl-phenyl]-N-ethyl-N-methyl-formamidine], the pest or weed control at 200 ppm in data set [1], in data set [2], in data set [3] and in data set [4] was at least 80% in each case.
Consider `CCCCOCC(O)(c1cc(C)c(/N=C/N(C)CC)cc1OC)C(F)(F)F` (centres unmarked) [Q.002, N′-[4-[1-(butoxymethyl)-2,2,2-trifluoro-1-hydroxy-ethyl]-5-methoxy-2-methyl-phenyl]-N-ethyl-N-methyl-formamidine], for which the pest or weed control at 200 ppm in data set [1], in data set [2], in data set [3] and in data set [4] was at least 80% each time.
The term melting point denotes the temperature of the solid-liquid transition. As to `COc1cc(/N=C/N(C)C(C)C)c(C)cc1C(O)(C1CC1)C(F)(F)F` (centres unmarked) [Q.003, N′-[4-(1-cyclopropyl-2,2,2-trifluoro-1-hydroxy-ethyl)-5-methoxy-2-methyl-phenyl]-N-isopropyl-N-methyl-formamidine], the melting point was 90 to 93 °C. In addition, in data set [1], the pest or weed control at 200 ppm was at least 80%. The pest or weed control at 200 ppm in data set [2] is at least 80%. Also, the pest or weed control at 200 ppm in data set [3] was at least 80%. Further, in data set [4], the pest or weed control at 200 ppm was at least 80%.
Regarding `CCN(C)/C=N/c1cc(OC)c(C(O)(COCC2CCC2)C(F)(F)F)cc1C` (centres unmarked) [Q.004, N′-[4-[1-(cyclobutylmethoxymethyl)-2,2,2-trifluoro-1-hydroxy-ethyl]-5-methoxy-2-methyl-phenyl]-N-ethyl-N-methyl-formamidine], the pest or weed control at 200 ppm in data set [1], in data set [2], in data set [3] and in data set [4] was at least 80% throughout.
Consider `CCN(C)/C=N/c1cc(OC)c(C(O)(COC2CCCC2)C(F)(F)F)cc1C` (centres unmarked) [Q.005, N′-[4-[1-(cyclopentoxymethyl)-2,2,2-trifluoro-1-hydroxy-ethyl]-5-methoxy-2-methyl-phenyl]-N-ethyl-N-methyl-formamidine], for which the pest or weed control at 200 ppm in data set [4] was at least 80%.
As for `C=C(C)CC(O)(c1cc(C)c(/N=C/N(C)C(C)C)cc1OC)C(F)(F)F` (centres unmarked) [Q.006, N′-[4-[1-hydroxy-3-methyl-1-(trifluoromethyl)but-3-enyl]-5-methoxy-2-methyl-phenyl]-N-isopropyl-N-methyl-formamidine], the melting point is 90 to 95 °C. Also, in data set [1], the pest or weed control at 200 ppm was at least 80%. Further, in data set [2], the pest or weed control at 200 ppm was at least 80%. For the same compound, the pest or weed control at 200 ppm in data set [3] was at least 80%. The compound also had a pest or weed control at 200 ppm in data set [4] of at least 80%.
`CCCCC(O)(c1cc(C)c(/N=C/N(C)C(C)C)cc1OC)C(F)(F)F` (centres unmarked) [Q.007, N′-[4-[1-hydroxy-1-(trifluoromethyl)pentyl]-5-methoxy-2-methyl-phenyl]-N-isopropyl-N-methyl-formamidine]: the pest or weed control at 200 ppm in data set [1], in data set [2], in data set [3] and in data set [4] was at least 80% throughout.
With `COc1cc(/N=C/N(C)C(C)C)c(C)cc1C(O)(c1ccccc1)C(F)(F)F` (centres unmarked) [Q.008, N-isopropyl-N′-[5-methoxy-2-methyl-4-(2,2,2-trifluoro-1-hydroxy-1-phenyl-ethyl)phenyl]-N-methyl-formamidine], the melting point lay within 110 to 111 °C. Besides, the pest or weed control at 200 ppm in data set [2] was at least 80%. Further, the pest or weed control at 200 ppm in data set [3] was at least 80%. The same compound returned a pest or weed control at 200 ppm in data set [4] of at least 80%.
For the compound `CCN(C)/C=N/c1cc(OC)c(C(O)(c2ccccc2C)C(F)(F)F)cc1C` (centres unmarked) [Q.009, N-ethyl-N′-[5-methoxy-2-methyl-4-[2,2,2-trifluoro-1-hydroxy-1-(o-tolyl)ethyl]phenyl]-N-methyl-formamidine], the melting point lay within 115 to 117 °C. The pest or weed control at 200 ppm in data set [1] was at least 80%. Also, the pest or weed control at 200 ppm in data set [2] was at least 80%. The pest or weed control at 200 ppm in data set [3] was at least 80%. Also, the pest or weed control at 200 ppm in data set [4] was at least 80%.
For the compound `CCN(C)/C=N/c1cc(OC)c(C(O)(c2cc(F)cc(F)c2)C(F)(F)F)cc1C` (centres unmarked) [Q.010, N′-[4-[1-(3,5-difluorophenyl)-2,2,2-trifluoro-1-hydroxy-ethyl]-5-methoxy-2-methyl-phenyl]-N-ethyl-N-methyl-formamidine], the melting point lay within 107 to 108 °C. The pest or weed control at 200 ppm in data set [1] is at least 80%. For the same compound, the pest or weed control at 200 ppm in data set [2] was at least 80%. Further, in data set [3], the pest or weed control at 200 ppm is at least 80%. The compound also gave a pest or weed control at 200 ppm in data set [4] of at least 80%.
